Assay results taken from PubChem BioAssay (NCI).
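Tested at 5 concentrations; 48 h exposure; 96-well plates; endpoints linearly interpolated, else capped at highest concentration. Here, GI50 denotes the concentration required for 50% inhibition of growth. At the TGI there is no net growth.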

Experiments:
Experiment in all cases: NCI anticancer screen, dose series, 48 h
A498 renal = system: A498 renal
LOX IMVI melanoma = system: LOX IMVI melanoma
M14 melanoma = system: M14 melanoma
MALME-3M melanoma = system: MALME-3M melanoma
MDA-MB-231 breast = system: MDA-MB-231 breast
NCI-H460 lung = system: NCI-H460 lung
OVCAR-3 ovarian = system: OVCAR-3 ovarian
RPMI-8226 leukemia = system: RPMI-8226 leukemia
SF-539 CNS = system: SF-539 CNS
SN12C renal = system: SN12C renal
SNB-75 CNS = system: SNB-75 CNS
SW-620 colon = system: SW-620 colon

| SMILES | TGI (A498 renal) | TGI (LOX IMVI melanoma) | TGI (M14 melanoma) | TGI (MALME-3M melanoma) | TGI (MDA-MB-231 breast) | TGI (NCI-H460 lung) | TGI (OVCAR-3 ovarian) | TGI (RPMI-8226 leukemia) | TGI (SF-539 CNS) | TGI (SN12C renal) | TGI (SNB-75 CNS) | TGI (SW-620 colon) | GI50 (RPMI-8226 leukemia) | GI50 (SN12C renal) |
| --- | --- | --- | --- | --- | --- | --- | --- | --- | --- | --- | --- | --- | --- | --- |
| Cc1cc(C)c2c(=O)n(CC(O)CN3CCN(c4ncccn4)CC3)sc2n1 (stereo unspecified) | 31.1 µM | 33.7 µM | 29.1 µM | 37.5 µM | 31.3 µM | 31.2 µM | 34.5 µM | 44 µM | 31.6 µM | 31.6 µM | 28.4 µM | 60.7 µM | – | – |
| CS(=O)(=O)c1nc(-c2cc3c(c(S(C)(=O)=O)n2)CCC3)cc2c1CCC2 | > 100 µM | > 100 µM | > 100 µM | – | > 100 µM | > 100 µM | > 100 µM | > 100 µM | > 100 µM | > 100 µM | 53.4 µM | > 100 µM | – | – |
| O=C(/C=C/c1ccccc1O)CC(=O)/C=C/c1ccccc1O | 51.3 µM | 6.45 µM | > 31.6 µM | 17.5 µM | – | 30.7 µM | 22.3 µM | 15.5 µM | 15.7 µM | 20.6 µM | > 78.7 µM | 24 µM | – | – |
| Nc1nc(-c2ccccc2)cc(-c2ccc(F)cc2)c1-c1ccc(Cl)cc1 | – | > 100 µM | > 100 µM | > 100 µM | > 100 µM | > 100 µM | > 100 µM | > 100 µM | – | > 100 µM | > 100 µM | > 100 µM | – | – |
| N#CCCN(CCN(CCN(C(=O)Nc1ccccc1)c1ccccc1)C(=O)Nc1ccccc1)C(=O)Nc1ccccc1 | > 100 µM | > 100 µM | > 100 µM | – | > 100 µM | – | > 100 µM | > 100 µM | > 100 µM | > 100 µM | > 100 µM | > 100 µM | – | – |
| CCCCc1ccc(Nc2nc(N)c3[nH]cnc3n2)cc1 | 24.2 µM | 33.3 µM | 88 µM | 38.1 µM | 39 µM | 52.2 µM | 51.9 µM | 77.5 µM | 43.4 µM | 31.1 µM | – | 63.6 µM | – | – |
| C=CCn1c(-c2ccc(N=NNc3ccc(-c4n[nH]c(=S)n4CC=C)cc3)cc2)n[nH]c1=S | > 100 µM | > 100 µM | > 100 µM | > 100 µM | > 100 µM | – | – | 4.63 µM | – | > 100 µM | 10.8 µM | > 100 µM | – | – |
| NC(=O)c1ncn(C2CCC(CP(=O)(O)O)C2)c1N (stereo unspecified) | – | > 100 µM | > 100 µM | > 100 µM | > 100 µM | > 100 µM | > 100 µM | > 100 µM | > 100 µM | > 100 µM | > 100 µM | > 100 µM | – | – |
| O=C(O)c1cc(/C=C/c2ccc(O)c(O)c2)ccc1O | – | > 100 µM | > 100 µM | > 100 µM | > 100 µM | > 100 µM | > 100 µM | > 100 µM | > 100 µM | > 100 µM | > 100 µM | – | – | – |
| Brc1ccc2c(c1)[C@H]1CCc3c([nH]c4ccccc34)[C@H]1N2 | – | 19.1 µM | 29.9 µM | 22.8 µM | 12.3 µM | 24.8 µM | 25.3 µM | 23.2 µM | 16.4 µM | 27.2 µM | 35.7 µM | 27.4 µM | – | – |
| Clc1ccc2nc3c(c(-c4ccccc4)nn3-c3ccccc3)c(-c3ccccc3)c2c1 | – | > 100 µM | > 100 µM | > 100 µM | > 100 µM | > 100 µM | > 100 µM | > 100 µM | – | > 100 µM | > 100 µM | > 100 µM | – | – |
| COc1cc(CNc2nc3cc(C(F)(F)F)ccc3nc2C(=O)O)cc(OC)c1OC | 60.7 µM | > 100 µM | 35.7 µM | > 100 µM | – | 82 µM | 64.2 µM | – | 37.6 µM | 30.2 µM | 74.7 µM | > 100 µM | – | – |
| Cc1cc2nc(N)n[n+]([O-])c2cc1C | > 100 µM | > 100 µM | > 100 µM | > 100 µM | > 100 µM | – | – | > 100 µM | > 100 µM | > 100 µM | – | > 100 µM | – | – |
| COC12OC3(C4OC41)C(C(=O)O[C@H]3CO[Si](C)(C)C(C)(C)C)C2S(=O)(=O)c1ccccc1 (stereo partly specified) | – | – | – | > 85.1 µM | > 7.32 µM | > 100 µM | > 100 µM | 11.7 µM | > 100 µM | > 9.26 µM | – | > 31.6 µM | – | – |
| N.N.NCCCCN.O=C([O-])CCl.O=C([O-])CCl.O=C([O-])CCl.O=C([O-])CCl.[Pt+4].[Pt+4] | > 50 µM | > 50 µM | > 50 µM | > 50 µM | – | > 50 µM | > 50 µM | > 50 µM | > 50 µM | 49.8 µM | > 50 µM | > 50 µM | > 50 µM | 9.99 µM |
| COC(=O)[C@@]12CC3CN(Cc4c1[nH]c1ccccc41)C2CC3=O | – | > 100 µM | > 100 µM | > 100 µM | > 100 µM | > 100 µM | > 100 µM | > 100 µM | > 100 µM | > 100 µM | > 100 µM | > 100 µM | – | – |
| CC12CCC3=C(CSC4=C3CSc3ccccc34)C1=CCCC2=O (stereo unspecified) | – | > 100 µM | > 100 µM | > 100 µM | – | > 100 µM | > 100 µM | > 100 µM | > 100 µM | > 100 µM | – | > 100 µM | – | – |
| CCCCOP(=O)(OCCCC)C(NS(=O)(=O)c1ccccc1)(C(=O)OCC)C(F)(F)F (stereo unspecified) | 76.1 µM | 96.9 µM | 68 µM | 45.4 µM | 36.7 µM | > 100 µM | 59.5 µM | 66.1 µM | 38.3 µM | 90.4 µM | 78.1 µM | – | – | – |
| C(=C/c1ccc2nc(-c3ccc(/C=C/C=N/NC4=NCCCN4)cc3)cn2c1)/C=N/NC1=NCCCN1 | > 100 µM | – | > 100 µM | – | 28.5 µM | 73.2 µM | > 100 µM | > 100 µM | > 100 µM | > 100 µM | > 100 µM | – | – | – |
| NCCCCN(CCCN)C(=O)OCc1ccccc1 | > 100 µM | – | > 100 µM | – | > 100 µM | > 100 µM | > 100 µM | > 100 µM | > 100 µM | > 100 µM | > 100 µM | > 100 µM | – | – |
